Consider nine compounds from patent US8632914B2, “Triazolium and imidazolium salts and uses thereof” (University Health Network, priority 2008, dated 2014).

Broadly, the IC50 is the midpoint of a concentration-inhibition curve. By melting point is commonly meant the temperature of the solid-liquid transition.

One data set has as its system P. falciparum. As to the kind of experiment: Anti-Plasmodium activity: viability of P. falciparum cultures (pLDH enzyme assay). The data set is classed as cell-based. The settings on record: strain line ItG, 72 hr incubation, pLDH assay, mean of four determinations ± standard error, read-out: IC50 (μM) P. falciparum. As to the method: P. falciparum cultures were grown in O+ blood obtained by venipuncture of volunteers. Cultures of the laboratory line ItG were maintained by the method of Trager and Jensen (Trager, W.; Jensen, J. Science 1976, 193, 673) using RPM, 1640 supplemented with 10% human serum (a kind gift obtained under ethical consent from the Chemo Day Care department of the Princess Margaret Hospital, Toronto, Canada) and 50 μM hypoxanthine (RPMI-A). The effects of the test compounds on the viability of P. falciparum cultures were determined using a Lactate Dehydrogenase (LDH) enzyme assay specific to the enzyme found in Plasmodium falciparum (pLDH) (Prudhomme, J. G.; Sherman, I. W. J Immunol Methods 1999, 229(1-2), 169; Makler, M. T.; Ries, J. M.; Williams, J. A.; Bancroft, J. E.; Piper, R. C.; Gibbins, B. L.; Hinrichs, D. J. Am J Trop Med Hyg 1993, 48(6), 739). Briefly, compounds to be tested were dissolved in DMSO afford a solution having a concentration of 10 mg/mL. Two-fold serial dilutions were then produced in 50 μL of RPMI-A in a 96 well plate and then 50 μL of parasite culture (2% hematocrit, 2% parasitemia) were added to each well and the plates were then incubated at 37° C. in 95% N2, 3% CO2, and 2% O2 for 72 hr. The contents of the wells were then re-suspended using a multi-channel pipettor and a 15 μL sample was removed from each well and was added to 100 μL of pLDH enzyme assay mixture (Prudhomme, J. G.; Sherman, I. W. J Immunol Methods 1999, 229(1-2), 169). After 1 hr the absorbance of the wells at 650 nm was determined using a ThermoMax microplate reader (Molecular Devices, Sunnyvale, Calif.). The IC50 values of individual compounds were determined using a non-linear regression analysis of the data^19 using the computer program SigmaPlot (Jandel Scientific) and are reported in Table 1. The IC50 values represent the mean±standard error calculated from four independent determinations. To verify if the poor viability of the cultures was related to inhibited merozoite invasion, samples were taken from treated wells and the presence of extracellular merozoites was confirmed by microscopy.

The next data set has as its system CHO cells. As to the kind of experiment: Viability of CHO cells (MTT). The class given is cell-based. The settings on record: Cricetulus griseus; CHO cells; 48 hrs; MTT; mean of four determinations ± standard error; read-out: IC50 (μM) CHO cells. The protocol: CHO cells (ATCC, Manassas, Va.) were grown in RPMI-1640 supplemented with 10% fetal calf serum (Sigma, St. Louis, Mo.), 25 mM HEPES and gentimicin (RPMI-10). Cells were seeded in 96 well plates and grown to 50% confluency in 100 μL of RPMI-10 per well prior to the addition of either DMSO alone, or a 10 mg/mL solution of a test compound of the disclosure in DMSO. Compound gradients were prepared by adding 90 μL of RPMI-10 mixed with 10 μL of compound solution to the first well in the series, mixing, transferring 100 μL to the next well, and repeating until the next-to-last well was reached. After 48 hrs, the viability of the cells was determined by discarding the media in the wells and adding 100 μL of 10 mg/mL of 3-[4,5-dimethylthiazol-2-yl]-2,5-diphenyltetrazolium bromide (MTT, Sigma, St. Louis, Mo.) in RPMI-10, incubating the plates for a further hour, and then removing the media and adding 100 μL of DMSO and reading the absorbance at 650 nm (Campling, B. G.; Pym, J.; Galbraith, P. R.; Cole, S. P. Leuk Res 1988, 12(10), 823). The IC50 values of individual compounds were determined using a non-linear regression analysis of the dose-response curve using the computer program SigmaPlot (Jandel Scientific) and are reported in Table 1.

In another data set the test system is P. berghei parasites. In words: In vivo evaluation: parasitemia in mice infected with P. berghei. Also on record: species or system P. berghei in female Balb/C mice. As to the method: (§1) Groups of 5 female Balb/C mice were infected with 10^6 P. berghei parasites i.p. and the parasitemia was estimated daily by examining a Giemsa-stained blood film. Once parasites were observed mice were infused once daily with saline alone (control groups) or with 18 ug/day of QT72, 18 ug/day of QT69, 0.24 ug/day of QT98, 60 ug/day of QT109, 9 ug/day of QT119, 7.5 ug/day of QT124 or 450 ug/day of chloroquine (CQ) for three days, as indicated by the arrows in FIG. 1. Average parasitemias are shown in FIG. 1 with standard error of the mean for each experimental group indicated by bars. The separate graphs in FIG. 1 indicate the results of two separate experiments.

The subject of data set [1] is P. falciparum ItG cultures. In words: Effect on synchronized ItG P. falciparum cultures (Giemsa stained blood films). The settings on record: 20 uM; cultures synchronized at mature stage; 24 hrs incubation. The class given is cell-based. As to the method:
The culture was allowed to incubate for 24 hrs before samples were withdrawn and used to produce Giemsa stained blood films.

On the set-up of data set [2]: species or system mice. The settings on record: mouse, in vivo. As to the method:
as §1

Turning to `c1ccc(Cn2cc[n+](Cc3ccc4ccccc4c3)c2)cc1` [QT69, 1-Benzyl-3-(naphthalen-2-yl-methyl)imidazolium bromide], the values for the IC50 with P. falciparum and in the data set with CHO cells were 0.9 ± 0.2 µM and 108 ± 6 µM, respectively. Moreover, the “parasitemia vs saline control” value in the data set on P. berghei parasites (18 ug/day infused once daily for three days, day 6 (P<0.10), day 7 (P<0.01), day 8 (P<0.01)) is listed as “significantly lower”. For the same compound, the “parasite forms in Giemsa stained blood films” value in data set [1] is recorded as “parasite forms were seen associated with the outside of the red cells”.

`C[n+]1ccn(CCCCCCn2cc[n+](C)c2)c1` [QT87, 1,6-Bis-(3-methylimidazolium-1-yl)hexane diiodide] came in with a melting point of 156 to 157 °C. In the data set with P. falciparum, the IC50 stood at 2.6 ± 0.8 µM. In addition, the IC50 in the data set with CHO cells is 146 ± 14 µM.

On to `CCC[n+]1ccn(CCCCCCCCCCCCn2cc[n+](CCC)c2)c1` [QT119, 1,12-Bis(3-propylimidazolium-1-yl)dodecane diiodide], for which the IC50 is 0.0008 ± 0.0001 µM in the data set with P. falciparum and 78 ± 14 µM with CHO cells. For the same compound, the “parasitemia vs saline control” value with P. berghei parasites (9 ug/day infused once daily for three days, second experiment, day 14 (P<0.10), day 15 (P<0.03)) is reported as “significantly lower”. Besides, in data set [2], the “adverse effects on the health of the mice” value (shortened to “adverse effects”) is “no adverse effects on the health of the mice were observed”.

As for `C[n+]1cnn(CCCCCCCCCCCCn2c[n+](C)cn2)c1` [QT124, 1,12-Bis(4-methyl-1H-1,2,4-triazolium-1-yl)dodecane diiodide], the IC50 was 0.00016 ± 5e-05 µM in the data set with P. falciparum and 52 ± 9 µM in the data set on CHO cells. For the same compound, the “adverse effects” value in data set [2] is “no adverse effects on the health of the mice were observed”.

On to `CCN(CC)CCCC(C)Nc1ccnc2cc(Cl)ccc12` (stereo not shown) [chloroquine, reference compound], for which, in the data set on P. berghei parasites (450 ug/day infused once daily for three days, second experiment, all days following day 6 (P<0.02)), the “parasitemia vs saline control” value is “significantly lower”.

`C[n+]1ccn(CCCCCCCCCCCCCCCCCCCCn2cc[n+](C)c2)c1` [QT116, 1,20-Bis-(3-methylimidazolium-1-yl)eicosane diiodide] yielded a melting point of 78 to 80 °C. Further, the IC50 in the data set with P. falciparum is 0.0021 ± 0.0005 µM. For the same compound, the IC50 in the data set with CHO cells came out at 1.4 ± 0.2 µM.

Turning to `C[n+]1ccn(CCCCCCCCCCCCCn2cc[n+](C)c2)c1` [QT109, 1,13-Bis-(3-methylimidazolium-1-yl)tridecane diiodide], the IC50 in the data set with P. falciparum is 0.007 ± 0.003 µM; with CHO cells, 51 ± 11 µM. For the same compound, the “adverse effects” value in data set [2] is given as “no adverse effects on the health of the mice were observed”.

As to `C[n+]1ccn(-c2ccc(-c3ccc(-n4cc[n+](C)c4)cc3)cc2)c1` [QT98, 4,4′-Bis-(3-methyl-1H-imidazolium-1-yl)biphenyl diiodide], the IC50 in the data set with P. falciparum was determined as 0.009 ± 0.001 µM; in the data set with CHO cells it was 9 ± 2 µM. Moreover, the “parasitemia vs saline control” value in the data set on P. berghei parasites (0.24 ug/day infused once daily for three days, day 7 (P<0.05)) is recorded as “significantly lower”.

For the compound `Cl.Cl.c1cn(CCCCCCCCn2ccnc2)cn1`, the melting point is 176 to 177 °C.
